Source: patent US3996150A, “Ester compounds” (Lever Brothers Company, priority 1975, dated 1976)

Columns and labels:
[1] = Terg-O-Tometer stain removal test of detergent product containing the detergent solvent, rated visually; set-up: key: 0: complete removal; 1: Very slight remaining stain; 2: Slight remaining stain; 3: Moderate stain removal; 4: Poor stain removal; 5: Very poor stain removal; 6: Equal to original stain; details: 4.0% detergent solvent in detergent product; 5% solution 15 min, then 20 min wash at 0.144%; 120° F, 180 ppm hardness
Protocol: Four Dacron/cotton (65-35%) Khaki permanent press (Pants weight) test pieces (41/2 inches×6 inches) are first soiled by adding 3 drops of dirty crankcase motor oil on the center of the cloth and the stain allowed to set for one hour. The test cloths are then washed in the Terg-O-Tometerat 120° F, 180 ppm (2:1 Ca^+^+/Mg^+^+) hardness, 90 cycles per minute agitation, with a 5% solution of the detergent product described below (i.e., 50 g/liter) for 15 minutes and then hand squeezed to remove excess water. Finally the cloths are given a 20 minute wash at the standard use level (e.g. 0.144%) under the same conditions followed by a 1 minute rinse. After drying the washed cloths, the degree of stain removal is rated visually according to the scale below:
1 = Very slight remaining stain
2 = Slight remaining stain
3 = Moderate stain removal
5 = Very poor stain removal
6 = Equal to original stain
Ten such formulations utilizing the following "Detergent Solvents" were prepared and evaluated as described above: […]

[2] = Cold resistance of plasticized polyvinyl chloride film; format: physicochemical; details: PVC film 1.3 mm, 65 parts plasticizer per 100 parts S-PVC resin
Protocol: Tri(2-ethylhexyl) carboxymethyloxysuccinate was incorporated as a plasticizer in the preparation of polyvinyl chloride film as follows
Using a mixing roller at 170° (7 min.) followed by post-pressing the film at 170° C under contact pressure for 2 minutes, a good plasticized film (1.3 mm) of polyvinyl chloride was obtained. Cold resistance was -39° C compared to -36° C for a control PVC film made using di-2-ethylhexyl phthalate (DOP) as the plasticizer.

[3] = parent compound from which the esters are derived; cited from earlier work
[4] = parent compound from which the esters are derived; cited from earlier work; remark: listed apart in the source
[5] = under both aerobic and anaerobic conditions; cited from earlier work

| SMILES | Visual Grading Code (degree of stain removal) [1] | also measured |
| --- | --- | --- |
| CCOC(=O)COC(CC(=O)OCC)C(=O)OCC (centres unmarked) [C, triethyl carboxymethyloxysuccinate] | 1 |  |
| CCCCOC(=O)c1ccccc1C(=O)OCCCC [A, dibutyl phthalate, reference compound] | 2 |  |
| CCCCC(CC)COC(=O)COC(CC(=O)OCC(CC)CCCC)C(=O)OCC(CC)CCCC (centres unmarked) [G, tri(2-ethylhexyl) carboxymethyloxysuccinate] | 2 | Cold resistance [2]: -39 °C |
| CCCCOC(=O)COC(CC(=O)OCCCC)C(=O)OCCCC (centres unmarked) [E, tributyl carboxymethyloxysuccinate] | 2 |  |
| O=C(O)COC(CC(=O)O)C(=O)O (centres unmarked) [carboxymethyloxysuccinic acid] |  | toxicity [3]: non-toxic; teratogenicity [4]: non-teratogenic; biodegradability [5]: completely biodegradable |
| CCCCC(CC)COC(=O)c1ccccc1C(=O)OCC(CC)CCCC (centres unmarked) [di-2-ethylhexyl phthalate, reference compound] |  | Cold resistance [2]: -36 °C |
| CCCOC(=O)COC(CC(=O)OCCC)C(=O)OCCC (centres unmarked) [D, tripropyl carboxymethyloxysuccinate] | 1 |  |
| CCCCCCOC(=O)COC(CC(=O)OCCCCCC)C(=O)OCCCCCC (centres unmarked) [F, trihexyl carboxymethyloxysuccinate] | 1 |  |
| CCCCCCCCOC(=O)COC(CC(=O)OCCCCCCCC)C(=O)OCCCCCCCC (centres unmarked) [H, trioctyl carboxymethyloxysuccinate] | 2 |  |
| COC(=O)COC(CC(=O)OC)C(=O)OC (centres unmarked) [B, trimethyl carboxymethyloxysuccinate] | 2 |  |
| CCCCCCCCCCCCOC(=O)COC(CC(=O)OCCCCCCCCCCCC)C(=O)OCCCCCCCCCCCC (centres unmarked) [J, tridodecyl carboxymethyloxysuccinate] | 2 |  |
